Patent publication US9566342B2, “Compounds for treatment of heart failure” (SOLVOTRIN INNOVATIONS LIMITED, priority 2010, dated 2017)

Assays:
human colon cancer cells = experiment: Colon cancer cell invasiveness, in vitro model; type: cell-based; settings: low dose, FIG. 10
MMP-9 [1] = biological target: T1, MMP-9 (Homo sapiens, UniProt P14780); experiment: Direct inhibition of recombinant MMP-9, fluorogenic substrate; type: biochemical; design: purchased R&D Systems, Ireland; settings: read-out: inhibition of recombinant human MMP-9
MMP-8 = MMP-8 (Homo sapiens, UniProt P22894); experiment: Direct enzyme inhibition, MMP-8; type: biochemical
MMP-9 [2] = experiment: PMA-stimulated CaCo2 cells, zymography of media, MMP-9; type: cell-based
MMP-1 = biological target: T2, MMP-1 (Homo sapiens, UniProt P03956); experiment: Direct enzyme inhibition, MMP-1; type: biochemical
T2 sequence (P03956 100-469): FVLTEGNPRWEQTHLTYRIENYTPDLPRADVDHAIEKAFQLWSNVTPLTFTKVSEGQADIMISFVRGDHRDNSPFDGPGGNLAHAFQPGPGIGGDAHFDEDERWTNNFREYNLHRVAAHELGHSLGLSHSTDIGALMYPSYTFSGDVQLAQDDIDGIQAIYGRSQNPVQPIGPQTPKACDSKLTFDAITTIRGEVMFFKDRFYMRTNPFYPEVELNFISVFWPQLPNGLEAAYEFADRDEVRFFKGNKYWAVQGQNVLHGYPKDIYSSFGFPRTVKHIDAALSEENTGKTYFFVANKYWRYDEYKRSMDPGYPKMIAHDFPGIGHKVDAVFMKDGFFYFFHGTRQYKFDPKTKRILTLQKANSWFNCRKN

[3] = system: Human Ventricular Cardiac Fibroblast (HCF); experiment: Human ventricular cardiac fibroblast proliferation (CellTitre-Glo); type: cell-based
MMP-2 [4] = biological target: T3, MMP-2 (Homo sapiens, UniProt P08253); experiment: Direct inhibition of recombinant MMP-2, fluorogenic substrate; type: biochemical; design: purchased R&D Systems, Ireland; settings: read-out: inhibition of recombinant human MMP-2
T3 sequence (P08253 110-660): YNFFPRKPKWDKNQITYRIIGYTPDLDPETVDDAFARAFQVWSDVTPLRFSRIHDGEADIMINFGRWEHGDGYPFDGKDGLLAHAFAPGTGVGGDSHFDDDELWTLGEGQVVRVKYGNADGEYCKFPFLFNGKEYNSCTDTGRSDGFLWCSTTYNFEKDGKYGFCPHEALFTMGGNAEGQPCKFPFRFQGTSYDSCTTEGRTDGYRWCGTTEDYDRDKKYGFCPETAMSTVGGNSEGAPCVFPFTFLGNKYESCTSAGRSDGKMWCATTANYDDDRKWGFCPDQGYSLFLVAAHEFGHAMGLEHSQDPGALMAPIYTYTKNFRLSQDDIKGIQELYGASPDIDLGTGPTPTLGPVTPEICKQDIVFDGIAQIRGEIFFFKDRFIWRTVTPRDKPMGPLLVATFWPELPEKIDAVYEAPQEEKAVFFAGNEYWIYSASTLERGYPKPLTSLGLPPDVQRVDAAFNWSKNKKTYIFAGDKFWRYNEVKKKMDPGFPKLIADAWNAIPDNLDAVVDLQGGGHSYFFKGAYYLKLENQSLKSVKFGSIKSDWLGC

[5] = Blood pressure in non-human primates; settings: cynomolgus monkeys, over dosing period
[6] = system: Human Peripheral Blood mononuclear cells (PBMC) stimulated with TNF-α; experiment: MMPs, TIMP-1 and inflammatory markers in supernatants of PBMC stimulated with TNF-α; type: cell-based
MMP-2 [7] = experiment: PMA stimulated breast cancer cell model (HT1080 cells), pro-MMP-2 / MMP-2; type: cell-based
MMP-9 mRNA = experiment: TNFα treated human cardiac fibroblasts, MMP-9 transcription (QPCR); type: cell-based; settings: HCF
MMP-2 mRNA = experiment: TNFα treated human cardiac fibroblasts, MMP-2 transcription (QPCR); type: cell-based; settings: HCF, 10 ng/mL TNFα 72 hours, 75 or 150 μM
MMP-2 [8] = experiment: PMA-stimulated CaCo2 cells, zymography of media, MMP-2; type: cell-based; settings: 150 uM
MMP-9 [9] = experiment: Total MMP-9 levels on repeated oral administration in non-human primates; type: in vivo, cynomolgus monkeys
MMP-13 = MMP-13 (Homo sapiens, UniProt P45452); experiment: Direct enzyme inhibition, MMP-13; type: biochemical
MMP-2 [10] = biological target: T3, MMP-2; experiment: Model of direct enzyme inhibition, MMP-2 (IC50); type: biochemical
MMP-9 [11] = biological target: T1, MMP-9; experiment: Model of direct enzyme inhibition, MMP-9 (IC50); type: biochemical
[12] = 75 μM, 24 hours, TNFα, mean ± SEM
[13] = 150 μM, 24 hours, TNFα, mean ± SEM

T1 sequence (P14780 94-707): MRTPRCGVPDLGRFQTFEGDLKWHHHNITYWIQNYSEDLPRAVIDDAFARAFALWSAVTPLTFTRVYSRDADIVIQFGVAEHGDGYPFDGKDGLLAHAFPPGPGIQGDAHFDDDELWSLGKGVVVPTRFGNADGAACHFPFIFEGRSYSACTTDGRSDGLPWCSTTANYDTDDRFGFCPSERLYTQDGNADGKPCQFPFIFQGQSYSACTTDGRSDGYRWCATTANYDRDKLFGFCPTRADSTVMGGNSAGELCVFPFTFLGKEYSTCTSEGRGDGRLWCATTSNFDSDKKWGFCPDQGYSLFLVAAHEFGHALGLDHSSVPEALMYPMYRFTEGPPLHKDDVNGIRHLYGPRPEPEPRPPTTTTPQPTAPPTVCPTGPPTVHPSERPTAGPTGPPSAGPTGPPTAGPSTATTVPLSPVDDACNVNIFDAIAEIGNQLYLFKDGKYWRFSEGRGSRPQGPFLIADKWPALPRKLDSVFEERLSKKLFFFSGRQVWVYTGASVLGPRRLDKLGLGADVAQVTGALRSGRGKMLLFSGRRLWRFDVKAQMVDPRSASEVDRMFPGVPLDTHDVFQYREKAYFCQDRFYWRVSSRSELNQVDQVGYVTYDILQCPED
Sequence of MMP-8 (P22894 101-467, species assumed): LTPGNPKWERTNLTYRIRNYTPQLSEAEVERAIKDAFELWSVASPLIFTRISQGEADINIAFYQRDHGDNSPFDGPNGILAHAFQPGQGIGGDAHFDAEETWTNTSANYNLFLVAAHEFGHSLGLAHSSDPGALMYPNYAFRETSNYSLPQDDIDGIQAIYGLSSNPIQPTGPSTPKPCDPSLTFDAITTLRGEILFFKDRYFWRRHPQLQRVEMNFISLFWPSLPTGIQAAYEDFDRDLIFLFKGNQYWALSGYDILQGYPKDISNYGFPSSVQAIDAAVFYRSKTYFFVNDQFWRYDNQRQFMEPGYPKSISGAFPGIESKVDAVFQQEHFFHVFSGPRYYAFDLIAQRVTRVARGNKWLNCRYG

Molecule: C[C@H]1c2cccc(O)c2C(=O)C2=C(O)[C@]3(O)C(=O)C(C(=O)NCN(CCO[N+](=O)[O-])CCO[N+](=O)[O-])=C(O)[C@@H](N(C)C)[C@@H]3[C@@H](O)[C@@H]21 [SI1004, amido-N—[N,N-diethylnitrate-aminomethyl]-α-6-deoxy-5-oxytetracycline]
- colon cancer cell invasiveness (human colon cancer cells): more effective in reducing tumour cell invasiveness
- inhibition at 100 µM (MMP-9 [1]): 26.6 ± 1.7%
- inhibition at 10 µM (MMP-8; 10 μM): ~26%
- inhibition at 100 µM (MMP-8; 100 μM): ~60.7%
- suppression of MMP-9 activity relative to PMA positive control (MMP-9 [2]): approximately 60%
- inhibition at 10 µM (MMP-1; 10 μM): ~19%
- inhibition at 100 µM (MMP-1; 100 μM): ~63%
- inhibition of HCF proliferation ([3]; 75-150 μM, 2% FCS following serum starvation for 72 hours): significant inhibition
- inhibition of cardiac fibroblast proliferation (admixture study, FIG. 13) ([3]; 150 micromolar): significantly more effective at inhibiting cardiac fibroblast proliferation
- inhibition at 100 µM (MMP-2 [4]): 29.7 ± 2.1%
- diastolic blood pressure [5]: 56.4±3.8 mmHg
- mean systolic blood pressure [5]: 101±6.3 mmHg
- MMP-3 in in vitro inflammatory cell models [6]: does not reduce MMP-3
- Interleukin-1β protein level in PBMC supernatant [6, 12]: 27.8 ± 6.6 ng/mL
- Interleukin-4 protein level in PBMC supernatant [6, 12]: 10.8 ± 0.2 ng/mL
- Interleukin-5 protein level in PBMC supernatant [6, 12]: 35.8 ± 8.4 ng/mL
- Interleukin-8 protein level in PBMC supernatant [6, 12]: 10960 ± 484 ng/mL
- Interleukin-10 protein level in PBMC supernatant [6, 12]: 125.6 ± 32.2 ng/mL
- Interleukin-13 protein level in PBMC supernatant [6, 12]: 80.8 ± 24.8 ng/mL
- MMP-1 protein level in PBMC supernatant [6, 12]: 208 ± 102 ng/mL
- MMP-2 protein level in PBMC supernatant [6, 12]: 120.4 ± 86.4 ng/mL
- MMP-3 protein level in PBMC supernatant [6, 12]: 8.7 ± 5.2 ng/mL
- MMP-10 protein level in PBMC supernatant [6, 12]: 26.6 ± 18.4 ng/mL
- Interleukin-5 protein level in PBMC supernatant [6, 13]: 35.6 ± 6.4 ng/mL
- Interleukin-10 protein level in PBMC supernatant [6, 13]: 142.0 ± 55.2 ng/mL
- Interleukin-13 protein level in PBMC supernatant [6, 13]: 89.4 ± 13.2 ng/mL
- MMP-1 protein level in PBMC supernatant [6, 13]: 171 ± 66.0 ng/mL
- MMP-2 protein level in PBMC supernatant [6, 13]: 95.4 ± 52 ng/mL
- MMP-3 protein level in PBMC supernatant [6, 13]: 9.1 ± 6.1 ng/mL
- MMP-10 protein level in PBMC supernatant [6, 13]: 29.0 ± 14.6 ng/mL
- conversion of pro-MMP-2 to active MMP-2 (activation of MMP-2) (MMP-2 [7]): do not appear to activate MMP-2
- MMP-9 protein levels in treated cell supernatants (MMP-9 mRNA): below the lower limit of quantification
- TNFα induced upregulation of MMP-9 mRNA (MMP-9 mRNA; 10 ng/mL TNFα 72 hours, 75 or 150 μM): significantly inhibited
- MMP-2 mRNA expression (MMP-2 mRNA): no significant effects
- inhibition of MMP-2 activity relative to PMA positive control (MMP-2 [8]): about 40%
- total plasma MMP-9, median AUC (MMP-9 [9]; NHPs, daily orogastric gavage for 72 hours, n=6): 4.3 µg·h/mL
- change in MMP-9 from baseline to 72 hours (MMP-9 [9]; cynomolgus monkeys, oral gavage once daily for three days, n=6 per group): significantly reduced compared to doxycycline
- suppression of total serum MMP-9 protein levels (MMP-9 [9]; cynomolgus monkeys, oral, daily for 3 days, vs doxycycline): more effective suppression
- melting point: 101 to 104 °C
- inhibition at 10 µM (MMP-13; 10 μM): ~46%
- MMP-13 inhibition (MMP-13; at 1000 (so in the source)): around 74.5%
- IC50 (MMP-2 [10]): 9.4 µM
- IC50 (MMP-9 [11]): 25 µM

Molecule: Amido-N-[3-(Nitrooxymethyl)Piperidinomethyl]-α-6-Deoxy-5-Oxytetracycline [SI1005]
- colon cancer cell invasiveness (human colon cancer cells): more effective in reducing tumour cell invasiveness
- MMP-8 inhibition (MMP-8; 10 μM): ~16.9%
- MMP-8 inhibition (MMP-8; 100 μM): around 53.8%
- MMP-1 inhibition (MMP-1; 10 μM): ~13%
- MMP-1 inhibition (MMP-1; 100 μM): around 22%
- conversion of pro-MMP-2 to active MMP-2 (activation of MMP-2) (MMP-2 [7]): do not appear to activate MMP-2
- change in MMP-9 from baseline to 72 hours (MMP-9 [9]; cynomolgus monkey, in vivo, po): significantly reduced compared to doxycycline and SI1004
- MMP-13 inhibition (MMP-13; 10 μM): ~6.6%
- MMP-13 inhibition (MMP-13; 100 μM): around 28.4%
- IC50 (MMP-2 [10]): 63 µM
- IC50 (MMP-9 [11]): 139 µM
